From patent US20040254246A1, “Treating or preventing hot flashes using prodrugs of GABA analogs” (priority 2003, published 2004)

How the values were obtained:
[1] = Drug release from sustained release oral osmotic dosage form in artificial gastric fluid; format: physicochemical; details: osmotic sustained release dosage form of Section 5.2 (700 mg drug composition), one 10 mil passageway
Procedure: A sustained release oral osmotic delivery dosage form containing the gabapentin prodrug 1-{[(α-isobutanoyloxyethoxy)carbonyl]aminomethyl}-1-cyclohexane acetic acid is prepared following methods described in Ayer et al., U.S. Pat. No. 5,707,663. Accordingly, 660 grams of 1-{[α-isobutanoyloxyethoxy)carbonyl]aminomethyl}-1-cyclohexane acetic acid and 30 grams of pharmaceutical acceptable poly(ethylene oxide), 5,000,000 molecular weight, is added to the bowl of a fluid bed granulator. The microencapsulation process is computerized and atomized in cycles. The process is initiated by first fluidizing the dry drug and the polymer powder for 3 minutes and the blended granules are microencapsulated with aqueous hydroxypropylmethylcellulose solution. The polymer solution is prepared by dissolving 35 grams of hydroxypropylmethylcellulose comprising 11,200 molecular weight in 400 grams of water. […]
The osmotic displacement-push composition is then prepared as follows: first, 3.7 kg of sodium chloride and 150 grams of red ferric oxide are separately screened through an 8 mesh screen using a Quadro comil. […] The conditions monitored during the process are as follows: solution spray rate of 400 g/min (3 nozzles are used); inlet temperature 45° C.; outlet temperature 24° C. and process air flow of 1,500 ft^3/minute. […]

[2] = tested on: hot flashes in postmenopausal women; assay: Open label clinical study of hot flash frequency and severity, immediate release capsules; format: in vivo, human; details: immediate release 300 mg capsules, two capsules three times daily (1800 mg/day), oral, two weeks
Description: Twenty postmenopausal women who have been experiencing hot flashes (an average of at least 6 per day, range 6-20 per day) over the past 12 months and who have not been treated with hormone therapy (i.e., no estrogen, progestin, tamoxifen or leuprolide therapy) over the past 2 months are recruited to an open label clinical study on the effect of administration of a gabapentin prodrug on the frequency and severity of hot flash symptoms. After a two week baseline screening assessment, the prodrug 1-{[(α-isobutanoyloxyethoxy)carbonyl]aminomethyl}-1-cyclohexane acetic acid (synthesized as described by Gallop et al., International Publication No. WO 02/100347), formulated as an immediate release dosage form in 300 mg capsules, is administered in two capsules three times daily (1800 mg/day, equal to ˜900 mg gabapentin equivalents/day) for two weeks. Each patient records the frequency and severity of hot flashes in a diary following the protocol of Guttuso et al., Obstet. Gynecol. 2003, 101, 337-345. Daily hot flash frequency is calculated by totaling the number of hot flashes per week and dividing by the number of days in the week for which data is recorded. The primary outcome measure is the percentage change in hot flash frequency from baseline to the end of treatment week two. […]

[3] = tested on: hot flashes in postmenopausal women; assay: Open label clinical study of hot flash frequency and severity, osmotic sustained release capsules; format: in vivo, human; details: osmotic sustained release capsules 700 mg, two capsules twice daily (2800 mg/day), oral, two weeks
Description: Twenty postmenopausal women who have been experiencing hot flashes (an average of at least 6 per day, range 6-20 per day) over the past 12 months and who have not been treated with hormone therapy (i.e., no estrogen, progestin, tamoxifen or leuprolide therapy) over the past 2 months are recruited to an open label clinical study on the effect of administration of gabapentin prodrugs on the frequency and severity of hot flash symptoms. After a two week baseline screening assessment, the prodrug 1-{[(α-isobutanoyloxyethoxy)carbonyl]aminomethyl}-1-cyclohexane acetic acid, formulated as osmotic sustained release capsules containing 700 mg drug (preparation of the sustained release capsules is described in Section 5.2 above), is administered in two capsules twice daily (2800 mg/day, equal to ˜1400 mg gabapentin equivalents/day) for two weeks. Each patient records the frequency and severity of hot flashes in a diary following the protocol of Guttuso et al., Obstet. Gynecol 2003, 101, 337-345. Daily hot flash frequency is calculated by totaling the number of hot flashes per week and dividing by the number of days in the week for which data is recorded. The primary outcome measure is the percentage change in hot flash frequency from baseline to the end of treatment week two.

[4] = tested on: hot flashes in postmenopausal women; details: 59 postmenopausal women, double-blind placebo controlled trial; cited from earlier work

| Compound | release rate [1] | decrease in mean hot flash intensity from baseline [2] | decrease in mean hot flash intensity from baseline [3] | reduction in hot flash frequency from baseline [4] |
| --- | --- | --- | --- | --- |
| CC(OC(=O)NCC1(CC(=O)O)CCCCC1)OC(=O)C(C)C (stereo not drawn) [1-{[(α-isobutanoyloxyethoxy)carbonyl]aminomethyl}-1-cyclohexane acetic acid] | > 20 mg/h | more than 35% | more than 35% | – |
| NCC1(CC(=O)O)CCCCC1 [gabapentin, 1-Aminomethyl-1-cyclohexane acetic acid] | – | – | – | substantial reduction in hot flash frequency from baseline |
